Test results taken from PubChem BioAssay AID2060502 (Molecular Pharmacology Branch, DTP, NCI, 2025).

System: 885724-159-R-J1-PDC complex spheroid viability
Assay: Anticancer human tumor 885724-159-R-J1-PDC patient-derived pancreatic adenocarcinoma cell line growth inhibition [GQUAD]
Settings: for IC50: curve of first compound; for viability, T/C: stronger effect = lower value
Outline: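 Viability of tumor cells grown as complex spheroids with endothelial and stromal cells, exposed to drug combinations. Top concentration at or near clinical Cmax (else 10 microM), diluted in half-log increments.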

[1] = second compound 0.0316 µM, first compound 0.0316 µM
[2] = second compound 0.0316 µM, first compound 0.1 µM
[3] = second compound 0.0316 µM, first compound 0.316 µM
[4] = second compound 0.0316 µM, first compound 1 µM
[5] = second compound 0.0316 µM, first compound 3.16 µM
[6] = second compound 0.0316 µM, first compound 10 µM
[7] = second compound 0.1 µM, first compound 0.0316 µM
[8] = second compound 0.1 µM, first compound 0.1 µM
[9] = second compound 0.1 µM, first compound 0.316 µM
[10] = second compound 0.1 µM, first compound 1 µM
[11] = second compound 0.1 µM, first compound 3.16 µM
[12] = second compound 0.1 µM, first compound 10 µM
[13] = second compound 0.316 µM, first compound 0.0316 µM
[14] = second compound 0.316 µM, first compound 0.1 µM
[15] = second compound 0.316 µM, first compound 0.316 µM
[16] = second compound 0.316 µM, first compound 1 µM
[17] = second compound 0.316 µM, first compound 3.16 µM
[18] = second compound 0.316 µM, first compound 10 µM
[19] = second compound 1 µM, first compound 0.0316 µM
[20] = second compound 1 µM, first compound 0.1 µM
[21] = second compound 1 µM, first compound 0.316 µM
[22] = second compound 1 µM, first compound 1 µM
[23] = second compound 1 µM, first compound 3.16 µM
[24] = second compound 1 µM, first compound 10 µM
[25] = second compound 3.16 µM, first compound 0.0316 µM
[26] = second compound 3.16 µM, first compound 0.1 µM
[27] = second compound 3.16 µM, first compound 0.316 µM
[28] = second compound 3.16 µM, first compound 1 µM
[29] = second compound 3.16 µM, first compound 3.16 µM
[30] = second compound 3.16 µM, first compound 10 µM
[31] = second compound 10 µM, first compound 0.0316 µM
[32] = second compound 10 µM, first compound 0.1 µM
[33] = second compound 10 µM, first compound 0.316 µM
[34] = second compound 10 µM, first compound 1 µM
[35] = second compound 10 µM, first compound 3.16 µM
[36] = second compound 10 µM, first compound 10 µM
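Also: spheroids exposed to agents for seven days before readout.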
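For viability, T/C in this document: percent of vehicle control viability where 100% = DMSO wells.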

O=C(c1cc(Cc2n[nH]c(=O)c3ccccc23)ccc1F)N1CCN(C(=O)C2CC2)CC1 + Cc1[nH]c2ccc(F)cc2c1-c1nc2c3cccnc3c3ncccc3c2[nH]1
IC50 (second compound 0.0316 µM): > 10 µM
IC50 (second compound 0.1 µM): > 10 µM
IC50 (second compound 0.316 µM): > 10 µM
IC50 (second compound 1 µM): > 10 µM
IC50 (second compound 3.16 µM): < 0.0316 µM
IC50 (second compound 10 µM): > 10 µM
viability, T/C [1]: 99.1%
viability, T/C [2]: 94.3%
viability, T/C [3]: 103%
viability, T/C [4]: 84.5%
viability, T/C [5]: 89.2%
viability, T/C [6]: 87.9%
viability, T/C [7]: 102%
viability, T/C [8]: 111%
viability, T/C [9]: 92.2%
viability, T/C [10]: 92.6%
viability, T/C [11]: 103%
viability, T/C [12]: 78.1%
viability, T/C [13]: 85.5%
viability, T/C [14]: 88.7%
viability, T/C [15]: 90.3%
viability, T/C [16]: 79.1%
viability, T/C [17]: 96.2%
viability, T/C [18]: 72.9%
viability, T/C [19]: 71.1%
viability, T/C [20]: 71.1%
viability, T/C [21]: 77.2%
viability, T/C [22]: 65.3%
viability, T/C [23]: 76.8%
viability, T/C [24]: 65.6%
viability, T/C [25]: 41.3%
viability, T/C [26]: 39.9%
viability, T/C [27]: 56.6%
viability, T/C [28]: 34.7%
viability, T/C [29]: 49.8%
viability, T/C [30]: 45.5%
viability, T/C [31]: 64.7%
viability, T/C [32]: 70.5%
viability, T/C [33]: 76.8%
viability, T/C [34]: 72.3%
viability, T/C [35]: 70.6%
viability, T/C [36]: 63.3%

Nc1ccn(C2OC(CO)C(O)C2(F)F)c(=O)n1 (centres undefined) + Cc1[nH]c2ccc(F)cc2c1-c1nc2c3cccnc3c3ncccc3c2[nH]1
IC50 (second compound 0.0316 µM): > 10 µM
IC50 (second compound 0.1 µM): > 10 µM
IC50 (second compound 0.316 µM): > 10 µM
IC50 (second compound 1 µM): > 10 µM
IC50 (second compound 3.16 µM): < 0.0316 µM
IC50 (second compound 10 µM): > 10 µM
viability, T/C [1]: 92.8%
viability, T/C [2]: 100%
viability, T/C [3]: 75.2%
viability, T/C [4]: 75.6%
viability, T/C [5]: 75.3%
viability, T/C [6]: 80.8%
viability, T/C [7]: 94.3%
viability, T/C [8]: 82.2%
viability, T/C [9]: 71.4%
viability, T/C [10]: 79.5%
viability, T/C [11]: 73.8%
viability, T/C [12]: 86.6%
viability, T/C [13]: 93.6%
viability, T/C [14]: 89.3%
viability, T/C [15]: 77.3%
viability, T/C [16]: 72.2%
viability, T/C [17]: 79.3%
viability, T/C [18]: 69.3%
viability, T/C [19]: 83.3%
viability, T/C [20]: 67.6%
viability, T/C [21]: 65.8%
viability, T/C [22]: 56.6%
viability, T/C [23]: 70.7%
viability, T/C [24]: 55%
viability, T/C [25]: 43.3%
viability, T/C [26]: 26.1%
viability, T/C [27]: 28.3%
viability, T/C [28]: 22.6%
viability, T/C [29]: 26.1%
viability, T/C [30]: 20.3%
viability, T/C [31]: 67.7%
viability, T/C [32]: 72.9%
viability, T/C [33]: 59%
viability, T/C [34]: 58.4%
viability, T/C [35]: 61.2%
viability, T/C [36]: 62%
